Kd data for two compounds are collected here from ChEMBL document CHEMBL1137519, “Elucidation of the RNA target of linezolid by using a linezolid-neomycin B heteroconjugate and genomic SELEX” (Bioorg Med Chem, 2007).

Assay [1] in a line: Binding affinity to Escherichia coli K12 stem-loop region L2-11 RNA aptamers using luminescence spectrometer by anisotropy technique.
Assay [2] can be described thus: Binding affinity to Escherichia coli K12 stem-loop region L2-10 RNA aptamers using luminescence spectrometer by anisotropy technique.
The nature of assay [3]: Binding affinity to Escherichia coli K12 stem-loop region L2-12 RNA aptamers using BIAcore 3000 instrument. For orientation: Surface plasmon resonance follows binding to a sensor surface in real time, without labels.
The nature of assay [4]: Binding affinity to Escherichia coli K12 stem-loop region L2-11 RNA aptamers using BIAcore 3000 instrument.
Assay [5] is described as follows: Binding affinity to Escherichia coli K12 stem-loop region L2-12 RNA aptamers using luminescence spectrometer by anisotropy technique.

A word on the Kd: it is a measure of binding affinity in units of concentration. On to `NC[C@@H]1O[C@H](O[C@H]2[C@@H](O)[C@H](O[C@@H]3[C@@H](O)[C@H](N)C[C@H](N)[C@H]3O[C@H]3O[C@H](CN)[C@@H](O)[C@H](O)[C@H]3N)O[C@@H]2CO)[C@H](N)[C@@H](O)[C@@H]1O` (stereo in doubt) [FRAMYCETIN], for which the Kd in assay [1] amounted to 313 nM; in assay [2] it was 308 nM; in assay [3] it was 2300 nM; in assay [4] it was 6300 nM; in assay [5], 320 nM.

As for `CC(=O)NC[C@@H]1CN(c2ccc(N3CCN(C(=O)CSCCCCCCSC[C@@H]4O[C@H](O[C@@H]5[C@@H](O)[C@H](N)C[C@H](N)[C@H]5O[C@H]5O[C@H](CN)[C@@H](O)[C@H](O)[C@H]5N)[C@@H](O)[C@H]4O[C@@H]4O[C@H](CN)[C@H](O)[C@@H](O)[C@@H]4N)CC3)c(F)c2)C(=O)O1`, the Kd in assay [1] was 260 nM; in assay [2], 90 nM; in assay [3], 670 nM; in assay [4], 960 nM; in assay [5], 66 nM.
